These results are taken from BindingDB's records for doi:10.1021/jm000320t (Gsk, 2001).

Usually Ki stands for the dissociation constant of the complex between target and ligand, obtained from inhibition or displacement. Low values mean higher affinity, high ones lower affinity.

Structures are written as SMILES.

Test in all cases: In Vitro Enzyme Inhibition Assay
The target in experiment [1] is T1, Cathepsin K (Homo sapiens, UniProt P43235).
T1 sequence (P43235 whole entry): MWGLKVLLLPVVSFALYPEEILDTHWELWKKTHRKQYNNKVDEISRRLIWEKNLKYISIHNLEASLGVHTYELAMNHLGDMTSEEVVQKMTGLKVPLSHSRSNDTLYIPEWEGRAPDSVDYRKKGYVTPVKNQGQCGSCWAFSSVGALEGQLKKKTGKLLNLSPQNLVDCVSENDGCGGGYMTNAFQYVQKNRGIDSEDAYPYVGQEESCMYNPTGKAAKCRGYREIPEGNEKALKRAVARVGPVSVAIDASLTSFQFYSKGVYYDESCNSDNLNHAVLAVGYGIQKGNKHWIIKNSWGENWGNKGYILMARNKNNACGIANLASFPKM
Particulars: pH 5.5; 22 °C. On the procedure:
(§1) Assays were carried out in the presence of variable concentrations of test compound. Reactions were initiated by addition of enzyme to buffered solutions of inhibitor and substrate. Product fluorescence (excitation at 360 nm, emission at 460 nm) was monitored with a fluorescent plate reader.

In experiment [2] the target is Cathepsin S (Homo sapiens, UniProt P25774). The method, then:
as §1

For experiment [3], the target named is Procathepsin L (Homo sapiens, UniProt P07711). The method, then:
as §1

Sequence of Cathepsin S (P25774 whole entry): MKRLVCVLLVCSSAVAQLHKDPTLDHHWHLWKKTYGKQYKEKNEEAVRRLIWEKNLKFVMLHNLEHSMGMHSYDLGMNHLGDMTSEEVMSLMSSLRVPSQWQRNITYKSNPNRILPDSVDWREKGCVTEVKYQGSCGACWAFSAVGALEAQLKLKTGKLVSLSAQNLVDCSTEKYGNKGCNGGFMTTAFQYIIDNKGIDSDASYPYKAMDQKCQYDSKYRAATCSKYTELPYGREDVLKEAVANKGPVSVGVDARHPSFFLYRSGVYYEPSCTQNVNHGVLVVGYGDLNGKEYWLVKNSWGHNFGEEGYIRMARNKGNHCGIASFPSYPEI
Sequence of Procathepsin L (P07711 whole entry): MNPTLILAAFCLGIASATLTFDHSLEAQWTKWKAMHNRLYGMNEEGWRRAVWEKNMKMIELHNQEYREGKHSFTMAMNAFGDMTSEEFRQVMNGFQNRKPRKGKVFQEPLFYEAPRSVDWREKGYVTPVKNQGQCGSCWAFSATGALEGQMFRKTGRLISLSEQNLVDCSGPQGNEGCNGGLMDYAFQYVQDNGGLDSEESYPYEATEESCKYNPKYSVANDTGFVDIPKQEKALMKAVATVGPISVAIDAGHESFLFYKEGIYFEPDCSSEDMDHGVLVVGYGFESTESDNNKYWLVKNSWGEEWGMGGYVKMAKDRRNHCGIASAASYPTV

On to `CN[C@@H](CC(C)C)C(=O)N1CC(=O)C(NC(=O)[C@H](CC(C)C)NC(=O)OCc2ccccc2)C1` (stereo partly drawn) [[(2S)-1-{3-[(2S)-2-{[(benzyloxy)carbonyl]amino}-4-methylpentanamido]-4-oxopyrrolidin-1-yl}-4-methyl-1-oxopentan-2-yl](methyl)azanium chloride], for which the inhibition constant Ki in experiment [1] amounted to 0.077 µM; in experiment [2] it was 0.29 µM; in experiment [3], 0.4 µM.
